In ChEMBL document CHEMBL1152116, “Novel benzimidazole-4-carboxylic acid derivatives as potent and selective 5-HT3 receptor ligands” (Bioorg Med Chem Lett, 1996):

Tests used:
[1] = molecular target: T1, Serotonin 3 (5-HT3) receptor (Rattus norvegicus, UniProt P35563+Q9JJ16); test: In vitro displacement of [3H]-LY 278584 from rat cerebral cortex 5-hydroxytryptamine 3 receptor; assay type: tissue-based
T1 sequence (P35563 whole entry): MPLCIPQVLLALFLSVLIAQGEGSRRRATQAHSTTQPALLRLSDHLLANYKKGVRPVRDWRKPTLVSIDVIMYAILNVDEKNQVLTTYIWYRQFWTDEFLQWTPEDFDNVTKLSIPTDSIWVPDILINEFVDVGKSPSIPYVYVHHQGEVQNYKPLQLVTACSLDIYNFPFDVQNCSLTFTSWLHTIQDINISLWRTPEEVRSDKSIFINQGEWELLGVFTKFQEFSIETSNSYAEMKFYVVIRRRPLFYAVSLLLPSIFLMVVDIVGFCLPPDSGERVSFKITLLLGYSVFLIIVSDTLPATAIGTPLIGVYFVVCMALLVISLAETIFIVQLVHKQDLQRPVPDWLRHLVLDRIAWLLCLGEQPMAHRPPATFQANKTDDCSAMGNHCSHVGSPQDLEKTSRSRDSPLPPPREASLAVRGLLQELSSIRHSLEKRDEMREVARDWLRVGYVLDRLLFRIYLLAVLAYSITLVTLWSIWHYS
T1 sequence (Q9JJ16 whole entry): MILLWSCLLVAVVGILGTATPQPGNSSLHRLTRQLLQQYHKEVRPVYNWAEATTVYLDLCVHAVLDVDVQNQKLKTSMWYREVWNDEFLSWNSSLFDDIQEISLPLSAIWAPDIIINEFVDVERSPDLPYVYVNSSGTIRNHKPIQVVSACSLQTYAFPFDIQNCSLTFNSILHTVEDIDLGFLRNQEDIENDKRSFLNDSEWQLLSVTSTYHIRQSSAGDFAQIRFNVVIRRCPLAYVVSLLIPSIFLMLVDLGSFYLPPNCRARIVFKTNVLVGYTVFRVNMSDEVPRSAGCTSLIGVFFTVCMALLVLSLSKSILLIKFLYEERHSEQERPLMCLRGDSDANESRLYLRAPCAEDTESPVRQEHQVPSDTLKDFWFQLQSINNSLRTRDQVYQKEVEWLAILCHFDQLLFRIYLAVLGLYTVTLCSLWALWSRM

[2] = molecular target: 5-hydroxytryptamine receptor 4 (Rattus norvegicus, UniProt Q62758); test: Displacement of [3H]GR-113808 from rat striatum 5-hydroxytryptamine 4 receptor
Sequence of 5-hydroxytryptamine receptor 4 (Q62758 whole entry): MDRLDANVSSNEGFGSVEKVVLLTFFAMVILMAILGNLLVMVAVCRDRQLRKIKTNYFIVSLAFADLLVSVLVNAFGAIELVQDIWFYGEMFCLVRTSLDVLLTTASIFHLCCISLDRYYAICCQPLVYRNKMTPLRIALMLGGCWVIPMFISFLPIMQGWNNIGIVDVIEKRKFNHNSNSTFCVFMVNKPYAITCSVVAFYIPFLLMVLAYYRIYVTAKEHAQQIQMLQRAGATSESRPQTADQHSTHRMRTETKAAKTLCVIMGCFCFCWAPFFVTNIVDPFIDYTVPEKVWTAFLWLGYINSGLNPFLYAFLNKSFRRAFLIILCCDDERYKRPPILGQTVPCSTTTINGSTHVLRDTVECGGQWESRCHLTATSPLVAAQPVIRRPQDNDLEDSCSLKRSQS

Compound	Ki [1]	Ki [2]
CN1CCC(NC(=O)c2cccc3[nH]cnc23)CC1	145 nM	719 nM
COc1cc(N)c(Cl)cc1C(=O)NC1CN2CCC1CC2 (stereo not given) [ZACOPRIDE]	–	158 nM
O=C(NC1CN2CCC1CC2)c1cccc2nc[nH]c12 (stereo not given)	3.7 nM	> 1000 nM
CN1[C@@H]2CC[C@H]1C[C@@H](OC(=O)c1c[nH]c3ccccc13)C2 [TROPISETRON]	–	63 nM
CN1CCC(NC(=O)c2cc(Cl)cc3[nH]cnc23)CC1	29.5 nM	54 nM
CN1C2CCCC1CC(NC(=O)c1cccc3[nH]cnc13)C2 (stereo not given)	6.1 nM	> 1000 nM
CN1C2CCCC1CC(OC(=O)c1cc(Cl)cc3[nH]cnc13)C2 (stereo not given)	4.9 nM	> 1000 nM
CN1CCC(OC(=O)c2cccc3nc[nH]c23)CC1	> 1000 nM	> 10000 nM
CN1C2CCCC1CC(NC(=O)c1cc(Cl)cc3nc[nH]c13)C2 (stereo not given)	154 nM	167 nM
O=C(NC1CN2CCC1CC2)c1cc(Cl)cc2nc[nH]c12 (stereo not given)	0.29 nM	168 nM
CN1C2CCCC1CC(OC(=O)c1cccc3nc[nH]c13)C2 (stereo not given)	129 nM	> 10000 nM
